Source: patent US10450292B2, “Inhibitors of bacterial RNA polymerase: arylpropanoyl, arylpropenoyl, and arylcyclopropanecarboxyl phloroglucinols” (Rutgers, The State University of New Jersey, priority 2015, dated 2019)
≈ marks a conversion by molar mass, not a printed value. Where two headings read alike, the source gives them in different places.

Experiments:
[1] = tested on: Enterococcus faecalis ATCC 19433; test: Inhibition of bacterial growth in culture, spiral gradient endpoint assay (MIC); format: cell-based; conditions: Enterococcus faecalis, ATCC 19433 /, 16 h
From the text: J. Microbiol. Meths. […] Int. J. Exp. Clin. Chemother. […] Adv.

[2] = tested on: Escherichia coli D21f2tolC; test: microbe, parasite or virus in culture; conditions: 16 h
[3] = tested on: Staphylococcus aureus ATCC 12600; test: Inhibition of bacterial growth in culture, spiral gradient endpoint assay (MIC); conditions: Staphylococcus aureus, ATCC12600, 16 h
[4] = read-out: MIC E. faecalis, Mueller-Hinton II agar, 16 h at 37° C.
[5] = read-out: MIC E. coli D21f2tolC, Mueller-Hinton II agar, 16 h at 37° C.
[6] = read-out: MIC S. aureus 12600, Mueller-Hinton II agar, 16 h at 37° C.

Compound	MIC [1, 4]	MIC [2, 5]	MIC [3, 6]	MIC ([1]; read-out: MIC E. faecalis)	MIC ([2]; read-out: MIC E. coli D21f2tolC)	MIC ([3]; read-out: MIC S. aureus 12600)
O=C(C=Cc1ccc(Oc2ccc(Cl)cc2)cc1)c1c(O)cc(O)cc1O (mixture of isomers) [Example 5, (E)-3-(4-(4-chlorophenoxy)phenyl)-1-(2,4,6-trihydroxyphenyl)prop-2-en-1-one]	6 µg/mL	1.6 µg/mL	2.6 µg/mL	–	–	–
CC(Cc1ccc(Cl)cc1)C(=O)c1c(O)cc(O)cc1O (racemic) [Example 30, 3-(4-chlorophenyl)-2-methyl-1-(2,4,6-trihydroxyphenyl)propan-1-one]	17 µg/mL (≈ 55.4 µM)	6.5 µg/mL (≈ 21.2 µM)	14 µg/mL (≈ 45.6 µM)	–	–	–
Cc1ccc(CCC(=O)c2c(O)cc(O)cc2O)s1 [Example 1, 3-(5-methylthiophen-2-yl)-1-(2,4,6-trihydroxyphenyl)propan-1-one]	> 40 µg/mL	24 µg/mL (≈ 86.2 µM)	32 µg/mL (≈ 115 µM)	–	–	–
O=C(c1c(O)cc(O)cc1O)C1CC1c1ccc(Cl)cc1 (centres unmarked) [Example 2, (2-(4-chlorophenyl)cyclopropyl)(2,4,6-trihydroxyphenyl)methanone]	12 µg/mL (≈ 39.4 µM)	9.3 µg/mL (≈ 30.5 µM)	12 µg/mL (≈ 39.4 µM)	–	–	–
O=C(CCc1ccc(Oc2cccc(Cl)c2)cc1)c1c(O)cc(O)cc1O [Example 3, 3-(4-(3-chlorophenoxy)phenyl)-1-(2,4,6-trihydroxyphenyl)propan-1-one]	3.7 µg/mL (≈ 9.62 µM)	1.9 µg/mL (≈ 4.94 µM)	1.9 µg/mL (≈ 4.94 µM)	–	–	–
O=C(CCc1ccc(Oc2ccc(Cl)cc2)cc1)c1c(O)cc(O)cc1O [Example 4, 3-(4-(4-chlorophenoxy)phenyl)-1-(2,4,6-trihydroxyphenyl)propan-1-one]	–	–	–	3.2 µg/mL (≈ 8.32 µM)	1.5 µg/mL (≈ 3.9 µM)	2.4 µg/mL (≈ 6.24 µM)
O=C(/C=C/c1ccc(Oc2ccccn2)cc1)c1c(O)cc(O)cc1O [Example 6, (E)-3-(4-(pyridin-2-yloxy)phenyl)-1-(2,4,6-trihydroxyphenyl)prop-2-en-1-one]	> 40 µg/mL	> 40 µg/mL	> 40 µg/mL	–	–	–
O=C(/C=C/c1ccc(OCc2ccccc2)cc1)c1c(O)cc(O)cc1O [Example 7]	> 40 µg/mL	16 µg/mL (≈ 44.2 µM)	> 40 µg/mL	–	–	–
O=C(/C=C/c1ccc(Oc2ccccc2)cc1)c1c(O)cc(O)cc1O [Example 8, (E)-3-(4-phenoxyphenyl)-1-(2,4,6-trihydroxyphenyl)prop-2-en-1-one]	31 µg/mL (≈ 89 µM)	3.8 µg/mL (≈ 10.9 µM)	6.5 µg/mL (≈ 18.7 µM)	–	–	–
O=C(/C=C/c1ccc(C(F)(F)F)cc1C(F)(F)F)c1c(O)cc(O)cc1O [Example 9, (E)-3-(2,4-bis(trifluoromethyl)phenyl)-1-(2,4,6-trihydroxyphenyl)prop-2-en-1-one]	16 µg/mL (≈ 40.8 µM)	8 µg/mL (≈ 20.4 µM)	13 µg/mL (≈ 33.1 µM)	–	–	–
O=C(CCc1ccc(Oc2ccc(F)cc2)cc1)c1c(O)cc(O)cc1O [Example 10, 3-(4-(4-fluorophenoxy)phenyl)-1-(2,4,6-trihydroxyphenyl)propan-1-one]	5.1 µg/mL (≈ 13.8 µM)	1.5 µg/mL (≈ 4.07 µM)	3.1 µg/mL (≈ 8.42 µM)	–	–	–
O=C(/C=C/c1ccc(Oc2ccc(F)cc2)cc1)c1c(O)cc(O)cc1O [Example 11, (E)-3-(4-(4-fluorophenoxy)phenyl)-1-(2,4,6-trihydroxyphenyl)prop-2-en-1-one]	> 40 µg/mL	5.9 µg/mL (≈ 16.1 µM)	17 µg/mL (≈ 46.4 µM)	–	–	–
O=C(c1c(O)cc(O)cc1O)C1CC1c1ccc(Oc2ccc(F)cc2)cc1 (centres unmarked) [Example 12, (2-(4-(4-fluorophenoxy)phenyl)cyclopropyl)(2,4,6-trihydroxyphenyl) methanone]	4 µg/mL (≈ 10.5 µM)	1.5 µg/mL (≈ 3.94 µM)	3.1 µg/mL (≈ 8.15 µM)	–	–	–
O=C(c1c(O)cc(O)cc1O)C1CC1c1ccc(Oc2ccc(Cl)cc2)cc1 (centres unmarked) [Example 13, (2-(4-(4-chlorophenoxy)phenyl)cyclopropyl)(2,4,6-trihydroxyphenyl)methanone]	4.8 µg/mL (≈ 12.1 µM)	2.1 µg/mL (≈ 5.29 µM)	4.3 µg/mL (≈ 10.8 µM)	–	–	–
O=C(/C=C/c1ccc(C(F)(F)F)cc1)c1c(O)cc(O)cc1O [Example 14, (E)-3-(4-(trifluoromethyl)phenyl)-1-(2,4,6-trihydroxyphenyl)prop-2-en-1-one]	32 µg/mL (≈ 98.7 µM)	20 µg/mL (≈ 61.7 µM)	32 µg/mL (≈ 98.7 µM)	–	–	–
O=C(/C=C/c1ccc(Oc2ccccc2)cc1C(F)(F)F)c1c(O)cc(O)cc1O [Example 15, (E)-3-(4-phenoxy-2-(trifluoromethyl)phenyl)-1-(2,4,6-trihydroxyphenyl)prop-2-en-1-one]	3.6 µg/mL (≈ 8.65 µM)	1.8 µg/mL (≈ 4.32 µM)	3.2 µg/mL (≈ 7.69 µM)	–	–	–
O=C(CCc1ccc(Oc2ccccc2)cc1C(F)(F)F)c1c(O)cc(O)cc1O [Example 16, 3-(4-phenoxy-2-(trifluoromethyl)phenyl)-1-(2,4,6-trihydroxyphenyl)propan-1-one]	1.8 µg/mL (≈ 4.3 µM)	1.3 µg/mL (≈ 3.11 µM)	1.1 µg/mL (≈ 2.63 µM)	–	–	–

Compound	MIC [1, 4]	MIC [2, 5]	MIC [3, 6]	MIC ([1]; read-out: MIC E. faecalis)	MIC ([2]; read-out: MIC E. coli D21f2tolC)	MIC ([3]; read-out: MIC S. aureus 12600)
O=C(/C=C/c1ccc(Oc2ccc(Cl)cc2)cc1C(F)(F)F)c1c(O)cc(O)cc1O [Example 17, (E)-3-(4-(4-chlorophenoxy)-2-(trifluoromethyl)phenyl)-1-(2,4,6-trihydroxyphenyl)prop-2-en-1-one]	1.9 µg/mL (≈ 4.21 µM)	2.5 µg/mL (≈ 5.55 µM)	1.8 µg/mL (≈ 3.99 µM)	–	–	–
Cc1cc(Oc2ccc(Cl)cc2)ccc1/C=C/C(=O)c1c(O)cc(O)cc1O [Example 18, (E)-3-(4-(4-chlorophenoxy)-2-methylphenyl)-1-(2,4,6-trihydroxyphenyl)prop-2-en-1-one]	2.4 µg/mL (≈ 6.05 µM)	1.1 µg/mL (≈ 2.77 µM)	1.3 µg/mL (≈ 3.28 µM)	–	–	–
Cc1ccc(C2CC2C(=O)c2c(O)cc(O)cc2O)cc1 (centres unmarked) [Example 19, (2-(p-tolyl)cyclopropyl)(2,4,6-trihydroxyphenyl)methanone]	> 40 µg/mL	13 µg/mL (≈ 45.7 µM)	20 µg/mL (≈ 70.3 µM)	–	–	–
Cc1ccc(C2CC2C(=O)c2c(O)cc(O)cc2O)c(C)c1 (centres unmarked) [Example 20, (2-(2,4-dimethylphenyl)cyclopropyl)(2,4,6-trihydroxyphenyl)methanone]	2.4 µg/mL (≈ 8.04 µM)	1.7 µg/mL (≈ 5.7 µM)	2.1 µg/mL (≈ 7.04 µM)	–	–	–
CCOc1ccc(C2CC2C(=O)c2c(O)cc(O)cc2O)cc1 (centres unmarked) [Example 21, (2-(4-ethoxyphenyl)cyclopropyl)(2,4,6-trihydroxyphenyl)methanone]	> 40 µg/mL	20 µg/mL (≈ 63.6 µM)	16 µg/mL (≈ 50.9 µM)	–	–	–
O=C(c1c(O)cc(O)cc1O)C1CC1c1ccc(Oc2ccccc2)cc1 (centres unmarked) [Example 22, (2-(4-phenoxyphenyl)cyclopropyl)(2,4,6-trihydroxyphenyl) methanone]	1.3 µg/mL (≈ 3.59 µM)	0.49 µg/mL (≈ 1.35 µM)	1 µg/mL (≈ 2.76 µM)	–	–	–
O=C(CCc1ccc(Oc2ccc(Cl)cc2)cc1C(F)(F)F)c1c(O)cc(O)cc1O [Example 23, 3-(4-(4-chlorophenoxy)-2-(trifluoromethyl)phenyl)-1-(2,4,6-trihydroxyphenyl)propan-1-one]	1.7 µg/mL (≈ 3.75 µM)	1.7 µg/mL (≈ 3.75 µM)	1.1 µg/mL (≈ 2.43 µM)	–	–	–
Cc1cc(Oc2ccc(Cl)cc2)ccc1CCC(=O)c1c(O)cc(O)cc1O [Example 24, 3-(4-(4-chlorophenoxy)-2-methylphenyl)-1-(2,4,6-trihydroxyphenyl)propan-1-one]	3 µg/mL (≈ 7.52 µM)	1.1 µg/mL (≈ 2.76 µM)	1.8 µg/mL (≈ 4.51 µM)	–	–	–
O=C(c1c(O)cc(O)cc1O)C1CC1c1ccc(Oc2ccc(Cl)cc2)cc1C(F)(F)F (centres unmarked) [Example 25, (2-(4-(4-chlorophenoxy)-2-(trifluoromethyl)phenyl)cyclopropyl)(2,4,6-trihydroxyphenyl)methanone]	1.7 µg/mL (≈ 3.66 µM)	1.5 µg/mL (≈ 3.23 µM)	1.7 µg/mL (≈ 3.66 µM)	–	–	–
Cc1cc(Oc2ccc(Cl)cc2)ccc1C1CC1C(=O)c1c(O)cc(O)cc1O (centres unmarked) [Example 26, (2-(4-(4-chlorophenoxy)-2-methylphenyl)cyclopropyl)(2,4,6-trihydroxyphenyl)methanone]	2.1 µg/mL (≈ 5.11 µM)	1.4 µg/mL (≈ 3.41 µM)	1.4 µg/mL (≈ 3.41 µM)	–	–	–
Cc1cc(Oc2ccc(F)cc2)ccc1/C=C/C(=O)c1c(O)cc(O)cc1O [Example 27, (E)-3-(4-(4-fluorophenoxy)-2-methylphenyl)-1-(2,4,6-trihydroxyphenyl)prop-2-en-1-one]	17 µg/mL (≈ 44.7 µM)	2.4 µg/mL (≈ 6.31 µM)	5.1 µg/mL (≈ 13.4 µM)	–	–	–
O=C(/C=C/c1ccc(Oc2ccc(C(F)(F)F)cc2)cc1)c1c(O)cc(O)cc1O [Example 28, (E)-3-(4-(4-(trifluoromethyl)phenoxy)phenyl)-1-(2,4,6-trihydroxyphenyl)prop-2-en-1-one]	6.5 µg/mL (≈ 15.6 µM)	2.4 µg/mL (≈ 5.76 µM)	3.1 µg/mL (≈ 7.45 µM)	–	–	–
O=C(c1c(O)cc(O)cc1O)C1CC1c1ccc(Oc2ccc(Cl)cc2Cl)cc1 (centres unmarked) [Example 29, (2-(4-(2,4-dichlorophenoxy)phenyl)cyclopropyl)(2,4,6-trihydroxyphenyl) methanone]	2.4 µg/mL (≈ 5.56 µM)	1.5 µg/mL (≈ 3.48 µM)	1.5 µg/mL (≈ 3.48 µM)	–	–	–
Cc1cc(Oc2ccccc2)ccc1/C=C/C(=O)c1c(O)cc(O)cc1O [Example 31, (E)-3-(2-methyl-4-phenoxyphenyl)-1-(2,4,6-trihydroxyphenyl)prop-2-en-1-one]	9.6 µg/mL (≈ 26.5 µM)	1.4 µg/mL (≈ 3.86 µM)	5.8 µg/mL (≈ 16 µM)	–	–	–
O=C(/C=C/c1ccc(Oc2ccc(F)cc2)cc1C(F)(F)F)c1c(O)cc(O)cc1O [Example 32, (E)-3-(4-(4-fluorophenoxy)-2-(trifluoromethyl)phenyl)-1-(2,4,6-trihydroxyphenyl)prop-2-en-1-one]	5.7 µg/mL (≈ 13.1 µM)	2.1 µg/mL (≈ 4.83 µM)	3.5 µg/mL (≈ 8.06 µM)	–	–	–
Cc1cc(Oc2ccccc2)ccc1CCC(=O)c1c(O)cc(O)cc1O [Example 33, 3-(2-methyl-4-phenoxyphenyl)-1-(2,4,6-trihydroxyphenyl)propan-1-one]	7.5 µg/mL (≈ 20.6 µM)	1.6 µg/mL (≈ 4.39 µM)	4.6 µg/mL (≈ 12.6 µM)	–	–	–
CCCc1c(O)cc(O)c(C(=O)/C=C/c2ccc(Oc3ccc(F)cc3)cc2)c1O [Example 67, (E)-3-(4-(4-fluorophenoxy)phenyl)-1-(2,4,6-trihydroxy-3-propylphenyl)prop-2-en-1-one]	0.55 µg/mL (≈ 1.35 µM)	0.72 µg/mL (≈ 1.76 µM)	–	–	–	–
